The values below come from patent publication US9017735B2, “Modulation of KCNQ potassium channel activity for treatment of psychiatric disorders and the symptoms thereof” (Marquette University, priority 2009, dated 2015).

Entries after “also recorded” stand apart in the source; their conditions may differ.

Data set [1] deals with KCNQ (Kv7) potassium channels. The data set is described as follows: Social interaction behavior, acute PCP model of schizophrenia. It is filed as in vivo, rats. To be noted: phencyclidine administration in laboratory rodents; no dose stated. From the text:
Social interaction deficit is considered to be a negative symptom of schizophrenia and can be induced in rodents by acute PCP or Ketamine administration and can be reversed by antipsychotics. […] A cocktail mixture of XE991 and PCP dissolved in saline was used in these studies. *p<0.05 vs. Sal/Sal; +p<0.05 vs. Sal/PCP; N=25-42 rats per treatment.
Social interaction deficit is considered to be a negative symptom of schizophrenia and can be induced in rodents by acute PCP or Ketamine administration and can be reversed by antipsychotics. […] A cocktail mixture of DMP543 and PCP dissolved in 40% DMSO was used in these studies. *p<0.05 vs. Sal/Sal; +p<0.05 vs. Sal/PCP; N=10-28 rats per treatment. […]

For data set [2], the system named is KCNQ potassium channels in prefrontal cortex. The experiment in a line: Forced delayed alternation task in a T-maze (working memory), acute PCP model, brain microinfusion. It counts as in vivo, rats. To be noted: for effect on deficits in forced delayed alternation task performance in a T-maze produced by phencyclidine (summary statement): phencyclidine administration in laboratory rodents, no dose stated. On the procedure:
This experimental paradigm involves the working memory, a prefrontal cortex dependent task, and is used to examine attention and memory function. This study was conducted to determine the role of KCNQ channels in PFC in regulation of memory.
Microinjection and Behavioral Experiments. Stainless Steel cannulae were implanted bilaterally 1 mm above nucleus accumbens or implanted in prefrontal cortex. Rats were permitted a minimum of 7 days recovery from surgery. Drugs were injected using an injection needle that extended 1 mm beyond the tip of the guide cannulae. […] In experiments where two drugs were delivered into accumbens, the microinjections were separated by 15 minutes. Behavioral activity then was monitored as discussed in the Results.
(§1) Drugs. All drugs were purchased from commercial sources and dissolved in saline. […] All drug doses were nmol per side and were injected bilaterally into the specified brain region.

The test system of another data set is KCNQ channel. Conditions: comparative statement among the DuPont channel blockers; cited from earlier work.
The subject of data set [3] is KCNQ (Kv7) potassium channels. The experiment in a line: Prepulse inhibition (PPI) of the startle response, acute PCP model of schizophrenia. It is filed as in vivo, rats. To be noted: for effect on deficits in prepulse inhibition produced by phencyclidine (summary statement): phencyclidine administration in laboratory rodents, no dose stated.
From the text: The startle response is produced by delivery of a sudden and intense sensory stimulus pulse (120 db sound) and can be inhibited by exposure to a weaker prepulse (62, 66, or 75 db) which is slightly above the background noise level (60 db). […] PPI has been used as a measure of sensory information processing in rodents and humans. […] A cocktail mixture of XE991 and PCP dissolved in saline was used in these studies. N=38 rats per treatment. *p<0.05 vs. Sal/Sal; +p<0.05 vs. Sal/PCP.
as §1

For data set [4] the following is noted: comparative statement among the DuPont channel blockers; cited from earlier work.
For data set [5], the system named is KCNQ (Kv7) potassium channels. The data set is described as follows: Social interaction behavior, acute PCP model of schizophrenia. It counts as in vivo, rats. Conditions: for effect of channel blocker alone on level of social interaction: 15 minutes before social interaction arena; for reversal of PCP-induced social interaction deficit: p<0.05 vs. Sal/PCP.

In the case of `O=C1c2ccccc2C(Cc2ccnc(F)c2)(Cc2ccnc(F)c2)c2ccccc21` [DMP543, 10,10-bis(2-fluoro-4-pyridinylmethyl)-9(10H)-anthracenone], the “effect on deficits in social interaction produced by phencyclidine (summary statement)” value in data set [1] was “attenuate or fully reverse”. Further, the “effect on deficits in forced delayed alternation task performance in a T-maze produced by phencyclidine (summary statement)” value in data set [2] is “attenuate or fully reverse”. Also, the “potency at KCNQ channel” value with KCNQ channel is “higher potency”. Besides, the “effect on deficits in prepulse inhibition produced by phencyclidine (summary statement)” value in data set [3] is “attenuate or fully reverse”. The serum half-life result in data set [4] is given as “higher serum half-life”. Moreover, the “effect of channel blocker alone on level of social interaction” value in data set [5] (DMP543 0.15 mg/kg s.c. alone) is recorded as “did not significantly modulate”. Besides, the “reversal of PCP-induced social interaction deficit” value in data set [5] (DMP543 0.15 mg/kg s.c. co-administered with PCP 1.5 mg/kg s.c. (cocktail in 40% DMSO)) was “significantly reversed the deficit”; in data set [5] (DMP543 0.15 mg/kg s.c. co-administered with PCP 1.5 mg/kg s.c. (cocktail in 40% DMSO), listed as DM543), “reversed”.
`O=C1N(c2ccccc2)c2ccccc2C1(Cc1ccncc1)Cc1ccncc1` [Linopirdine, 3,3-bis(4-pyridinylmethyl)-1-phenylindolin-2-one]: the “effect on deficits in social interaction produced by phencyclidine (summary statement)” value in data set [1] is “attenuate or fully reverse”. In data set [3], the “effect on deficits in prepulse inhibition produced by phencyclidine (summary statement)” value was “attenuate or fully reverse”.
For the molecule `c1ccc(C2(N3CCCCC3)CCCCC2)cc1` [PCP, phencyclidine], the “effect of PCP alone on working memory” value in data set [2] (PCP 3.0 mg/kg s.c. one hour before behavioral testing, trained rats, p<0.05 vs. Sal/Sal) was “robust and reproducible disruption of working memory”. For the same molecule, the “effect of PCP alone on prepulse inhibition” value in data set [3] (PCP 1.5 mg/kg s.c., all three prepulses, p<0.05 vs. Sal/Sal) is given as “reduced the prepulse inhibition at all three prepulses; also recorded: disrupts the prepulse inhibition”. Also, in data set [5] (PCP 1.5 mg/kg s.c., 15 minutes before testing, p<0.05 vs. Sal/Sal), the “effect of PCP alone on social interaction time” value was “significant reduction in social interaction time”.
Regarding `O=C1c2ccccc2C(Cc2ccncc2)(Cc2ccncc2)c2ccccc21` [XE991, 10,10-bis(4-pyridinylmethyl)-9(101-1)-anthracenone], the “effect on deficits in social interaction produced by phencyclidine (summary statement)” value in data set [1] is recorded as “attenuate or fully reverse”. In data set [2] (XE991 60 nmol/1 ul/1 min, acute bilateral infusion into prefrontal cortex, alone), the “effect of channel blocker alone on memory and performance in delayed alternation task” value was “did not disrupt the memory and performance”. For the same molecule, the “reversal of PCP-induced working memory deficits” value in data set [2] (XE991 60 nmol/1 μl/1 min microinfusion into PFC 5 minutes before PCP 3.0 mg/kg s.c., p<0.05 vs. Sal/PCP) was “reversed the PCP-induced memory deficits”. Besides, the “effect on PCP-mediated working memory disruption” value in data set [2] (XE991 microinjected in the nucleus accumbens (data not shown)) is listed as “no effect”. In addition, the “effect on deficits in forced delayed alternation task performance in a T-maze produced by phencyclidine (summary statement)” value in data set [2] was “attenuate or fully reverse”. Besides, the “effect of channel blocker alone on prepulse inhibition” value in data set [3] (XE991 0.5 mg/kg s.c. alone, 10 minutes before startle chamber, prepulses 62, 66, 75 db) is “did not show any disruption of the prepulse inhibition”. The “reversal of PCP-induced deficits in PPI” value in data set [3] (XE991 0.5 mg/kg s.c. with PCP 1.5 mg/kg s.c. (cocktail in saline), 66 db prepulse, p<0.05 vs. Sal/PCP) is on record as “reversed the PCP-induced deficits in PPI”. In addition, in data set [3], the “effect on deficits in prepulse inhibition produced by phencyclidine (summary statement)” value is listed as “attenuate or fully reverse”. Besides, the “effect of channel blocker alone on level of social interaction” value in data set [5] (XE991 0.5 mg/kg s.c. alone) is on record as “did not significantly modulate”. Further, in data set [5] (XE991 0.5 mg/kg s.c. co-administered with PCP 1.5 mg/kg s.c. (cocktail in saline)), the “reversal of PCP-induced social interaction deficit” value is “reversed the deficit”.
